SMILES strings stand for the structures. Counter-ions that a name gives are not always drawn.

In the assay the test system is ACHN cell line. The experiment in a line: drug screen of the SelleckChem kinase inhibitor library with and without 5 uM SU-329, Cell-Titer Glo after 5 days. In kind it is cell-based. The note with it: kinase inhibitor at 200 nM with and without 5 uM SU329; ACHN cell line; 5 days; Cell-Titer Glo.
Regarding `Cc1ccc(F)c(NC(=O)Nc2ccc(-c3cccc4[nH]nc(N)c34)cc2)c1` [Linifanib (ABT-869)], the log2fc is on record as −0.2483.

For `COc1ccc2c(c1)c(C1=C(c3c[nH]c4ccccc34)C(=O)NC1=O)cn2CCCN(C)C` [Go 6983], the log2fc came out at 0.08992.

In the case of `O=C(NCc1ccccc1)c1csc(Nc2ccncn2)n1` [Thiazovivin], the log2fc was −0.4963.

Molecule `CN1CCN(c2ccc(Nc3cc(-c4cccc(-n5ccc6cc(C7CC7)cc(F)c6c5=O)c4CO)cn(C)c3=O)nc2)CC1` [RN486] displayed a log2fc of 0.08695.

In the case of `Cc1ncc(-c2ccnc(Nc3ccc(S(C)(=O)=O)cc3)n2)n1C(C)C` [AZD5438], the log2fc was 1.871.

Take `Cc1nc(Nc2cnn(C3CCNCC3)c2)nc2c1N(C)C(=O)c1cc3ccccc3cc1N2C` [HTH-01-015]: the log2fc was 0.3141.

`Cc1ccc(Nc2nccc(N(C)c3ccc4c(C)n(C)nc4c3)n2)cc1S(N)(=O)=O` [Pazopanib] registered a log2fc of −0.1316.

On to `Nc1nc(N)c(N=O)c(OCC2CCCCC2)n1` [NU6027], for which the log2fc is −0.2463.

Molecule `CO[C@H]1C[C@@H]2CC[C@@H](C)[C@@](O)(O2)C(=O)C(=O)N2CCCC[C@H]2C(=O)O[C@H]([C@H](C)C[C@@H]2CC[C@@H](OCCO)[C@H](OC)C2)CC(=O)[C@H](C)/C=C(\C)[C@@H](O)[C@@H](OC)C(=O)[C@H](C)C[C@H](C)/C=C/C=C/C=C/1C` [Everolimus (RAD001)] yielded a log2fc of −1.364.

`C#Cc1cccc(Nc2ncnc3cc(OCCOC)c(OCCO)cc23)c1.Cl` [OSI-420, desmethyl erlotinib, reference compound] gave a log2fc of −0.04846.

For `C=CC(=O)Nc1ccc2ncnc(Nc3ccc(OCc4cccc(F)c4)c(Cl)c3)c2c1` [AST-1306, reference compound], the log2fc turned out to be 0.0584.

The molecule `O=C1NC(=O)C(=Cc2ccc(-c3ccc(F)cc3)o2)S1` (stereo in doubt) [CAY10505] showed a log2fc of 0.3828.

As for `CCN1CCN(Cc2ccc(-c3cc4c(N[C@H](C)c5ccccc5)ncnc4[nH]3)cc2)CC1` [AEE788 (NVP-AEE788), AEE788, reference compound], the log2fc was 0.07427.

Take `C#Cc1cccc(Nc2ncnc3cc4c(cc23)OCCOCCOCCO4)c1` [Icotinib]: the log2fc came out at 0.1182.

Regarding `Cl.Cl.NC1(c2ccc(-c3nc4ccn5c(=O)[nH]nc5c4cc3-c3ccccc3)cc2)CCC1` [MK-2206 2HCl], the log2fc is given as −0.1575.

For the molecule `COc1ccc2c(Oc3ccc(NC(=O)c4c(C)n(CC(C)(C)O)n(-c5ccccc5)c4=O)nc3)ccnc2c1` [AMG-458], the log2fc amounted to 0.0395.

As for `Cc1cc2c(F)c(Oc3ncnn4cc(OC[C@@H](C)O)c(C)c34)ccc2[nH]1` [Brivanib (BMS-540215)], the log2fc came to 0.1194.

`CC(=O)Nc1cccc(-n2c(=O)n(C3CC3)c(=O)c3c(Nc4ccc(I)cc4F)n(C)c(=O)c(C)c32)c1` [Trametinib (GSK1120212)] came in with a log2fc of 0.4803.

`CC(O)C(=O)O.CC(O)C(=O)O.CN1CCN(c2ccc3nc(-c4c(N)c5c(F)cccc5[nH]c4=O)[nH]c3c2)CC1` [Dovitinib (TKI-258) Dilactic Acid] yielded a log2fc of −0.3598.

`Cc1cc(C)c(/C=C2\C(=O)Nc3ccccc32)[nH]1` [Semaxanib (SU5416)]: the log2fc is given as −0.8277.

Take `COc1cc(CCc2cc(NC(=O)c3ccc(N4CC(C)NC(C)C4)cc3)n[nH]2)cc(OC)c1` (stereo not drawn) [AZD4547]: the log2fc amounted to 0.4725.

Molecule `COc1cc2nccc(Oc3ccc(NC(=O)Nc4ccc(F)cc4F)c(F)c3)c2cc1OC` [Ki8751] came in with a log2fc of 0.1011.

`N#C/C(=C/c1ccc(O)c(O)c1)C(=O)NCc1ccccc1` [AG-490 (Tyrphostin B42), AG-490, reference compound] came in with a log2fc of −0.01509.

The molecule `CC(C)(C)c1cc(/C=C(\C#N)C(N)=S)cc(C(C)(C)C)c1O` [Tyrphostin AG 879] displayed a log2fc of 0.3391.

As for `O=C(NOCC1CC1)c1ccc(F)c(F)c1Nc1ccc(I)cc1Cl` [PD184352 (CI-1040), PD184352, reference compound], the log2fc was 0.3257.

`O=c1cc(N2CCOCC2)oc2c(-c3ccccc3)cccc12` [LY294002]: the log2fc was 0.5337.

For the molecule `Cc1cnc(Nc2ccc(N3CCN(C)CC3)cc2)nc1Nc1cccc(S(=O)(=O)NC(C)(C)C)c1` [TG101209], the log2fc was −0.1573.

Regarding `CC1(COc2ccc3c(c2)ncn3-c2ccc3cccc(N4CCC(N)CC4)c3n2)COC1` [Crenolanib (CP-868596)], the log2fc came to 0.3666.

`O=c1ccc2ccc(O)c(O)c2o1` [Daphnetin] yielded a log2fc of 0.08794.

Molecule `N#Cc1c(O)c2c(-c3ccc(-c4ccccc4O)cc3)csc2[nH]c1=O` [A-769662] registered a log2fc of 0.1798.

`COCC(=O)NC/C=C/c1ccc2ncnc(Nc3ccc(Oc4ccc(C)nc4)c(C)c3)c2c1` [CP-724714, reference compound] showed a log2fc of 0.2836.

The molecule `CC(C)(C)c1cnc(CSc2cnc(NC(=O)C3CCNCC3)s2)o1` [SNS-032 (BMS-387032)] had a log2fc of −1.028.

Molecule `Cn1cc(/C=C2\C(=O)Nc3cccnc32)c2ccccc21` [GW441756] showed a log2fc of −0.09333.

Molecule `CCC[C@H](NC(=O)/C(C#N)=C/c1cccc(Br)n1)c1ccccc1` [Degrasyn (WP1130)] registered a log2fc of −0.132.

In turn, `Nc1nccc(Oc2ccc(NC(=O)c3c[nH]cc(-c4ccc(F)cc4)c3=O)cc2F)c1Cl` [BMS-794833] returned a log2fc of −0.04405.

The molecule `Cn1cnc2c(F)c(Nc3ccc(Br)cc3F)c(C(=O)NOCCO)cc21` [Binimetinib (MEK162, ARRY-162, ARRY-438)] came in with a log2fc of 0.5434.

Molecule `CC1(C)CNc2cc(NC(=O)c3cccnc3NCc3ccncc3)ccc21.O=P(O)(O)O.O=P(O)(O)O` [Motesanib Diphosphate (AMG-706)] registered a log2fc of −0.1118.

As to `Nc1ccc(-c2ccc3ncc4ccc(=O)n(-c5cccc(C(F)(F)F)c5)c4c3c2)cn1` [Torin 2], the log2fc was 1.267.

As for `Cc1cc(F)c(Nc2ncnc3cc(OCc4ccccc4)ccc23)cc1O.Cl` [ZM 323881 HCl], the log2fc came to 0.1765.

`NC(=O)Nc1cc(-c2cccc(F)c2)sc1C(=O)N[C@H]1CCCNC1` [AZD7762] yielded a log2fc of 0.8568.

For the molecule `Cc1cc(Nc2ncc(Cl)c(Nc3ccccc3S(=O)(=O)C(C)C)n2)c(OC(C)C)cc1C1CCNCC1` [Ceritinib (LDK378)], the log2fc came out at 0.2988.

With `Cl.Cl.O=S(=O)(NCCNC/C=C/c1ccc(Br)cc1)c1cccc2cnccc12` [H 89 2HCl], the log2fc is −0.01404.

With `N#Cc1c(NC(=O)c2cccc3ccccc23)sc2c1CCCC2` [JNK Inhibitor IX], the log2fc turned out to be 0.1814.

With `COc1ccc(-c2ccc3c(N4CCOCC4)nc(N4C[C@@H](C)O[C@@H](C)C4)nc3n2)cc1CO` [KU-0063794], the log2fc is −1.551.

`CC(C)(O)CC(=O)NCCn1ccc2ncnc(Nc3ccc(Oc4cccc(C(F)(F)F)c4)c(Cl)c3)c21` [TAK-285, reference compound] returned a log2fc of 0.3876.

The molecule `CN(C)Cc1cccc(N/C(=C2\C(=O)Nc3cc(C(N)=O)ccc32)c2ccccc2)c1` [BIX 02188] came in with a log2fc of 0.2216.

The molecule `NC(=O)c1cccc(-c2cc(Nc3ccc(OC(F)(F)F)cc3)ncn2)c1` [GNF-2] returned a log2fc of 0.1337.

`Cc1nc(N)sc1-c1ccnc(Nc2ccc(N3CCOCC3)cc2)n1` [CYC116] had a log2fc of −0.814.

Consider `CN1CCC(COc2cnc(-c3cccc(Cn4nc(-c5cccc(C#N)c5)ccc4=O)c3)nc2)CC1` [Tepotinib (EMD 1214063)], for which the log2fc is on record as 0.04059.

As to `Cc1cc(O)c2c(c1)C(=O)c1cccc(O)c1C2=O` [Chrysophanic Acid], the log2fc is recorded as −0.1902.

The molecule `CN1CCN(CCOc2cc(OC3CCOCC3)c3c(Nc4c(Cl)ccc5c4OCO5)ncnc3c2)CC1` [Saracatinib (AZD0530)] yielded a log2fc of 0.4009.

For the molecule `Oc1ccc2ccccc2c1SSc1c(O)ccc2ccccc12` [IPA-3], the log2fc was determined as 0.5168.

In turn, `CNC(=O)c1ccccc1Sc1ccc2c(/C=C/c3ccccn3)n[nH]c2c1` [Axitinib] showed a log2fc of 0.00155.

On to `C[S+]([O-])c1ccc(-c2nc(-c3ccc(F)cc3)c(-c3ccncc3)[nH]2)cc1` (stereo not drawn) [SB203580], for which the log2fc is −0.09424.

For the molecule `C[C@@]1(C(=O)Nc2ccc(F)nc2)CCCN1c1nc(Nc2cc(C3CC3)n[nH]2)c2cccn2n1` [BMS-754807], the log2fc is reported as −1.139.

`Cn1sc(=O)n(Cc2ccccc2)c1=O` [TDZD-8] gave a log2fc of 0.1552.

The molecule `Cc1cc(Nc2cc(CN3CCOCC3)c3nc(C)c(Cc4ccc(Cl)cc4F)n3n2)n[nH]1` [Gandotinib (LY2784544)] came in with a log2fc of 1.04.

With `C[C@@H](Oc1cc(-c2cnn(C3CCNCC3)c2)cnc1N)c1c(Cl)ccc(F)c1Cl` [Crizotinib (PF-02341066)], the log2fc worked out at 0.196.

For the molecule `COc1cc2ncnc(Nc3ccc(F)c(Cl)c3)c2cc1NC(=O)/C=C/CN1CCCCC1` [Dacomitinib (PF299804, PF299)], the log2fc was 0.3997.

Molecule `C=CC(=O)Nc1cccc(Sc2nc(Nc3ccc(N4CCN(C)CC4)cc3)ncc2Cl)c1` [WZ8040, reference compound] returned a log2fc of 0.02092.

Take `CCN(CCO)CCCOc1ccc2c(Nc3cc(CC(=O)Nc4cccc(F)c4)[nH]n3)ncnc2c1` [Barasertib (AZD1152-HQPA)]: the log2fc is recorded as 0.7387.

Molecule `COc1cc2nccc(Oc3ccc(NC(=O)C4(C(=O)Nc5ccc(F)cc5)CC4)cc3)c2cc1OC.O=C(O)C[C@H](O)C(=O)O` [Cabozantinib malate (XL184)] yielded a log2fc of 0.5713.

In turn, `Cc1nc(NC(=O)N2CCC[C@H]2C(N)=O)sc1-c1ccnc(C(C)(C)C(F)(F)F)c1` [Alpelisib (BYL719)] had a log2fc of −0.1349.

Turning to `[H]/N=C(/N)N/C(=N/[H])NCCc1ccccc1` [Phenformin HCl], the log2fc is 0.5945.

Turning to `C[C@@H](N)[C@H]1CC[C@H](C(=O)Nc2ccncc2)CC1.Cl.Cl` [Y-27632 2HCl], the log2fc is on record as −0.01003.

Regarding `N#CCNC(=O)c1ccc(-c2ccnc(Nc3ccc(N4CCOCC4)cc3)n2)cc1` [Momelotinib (CYT387)], the log2fc is listed as −1.441.

The record behind these values is US12195490B2, “STRAD-binding agents and uses thereof” (The Regents of the University of California, priority 2020, dated 2025).
